In patent US9278974B2, “Substituted pyrazolo[3,4-d]pyrimidine compounds, their preparation and use as sigma receptors ligands” (LABORATORIOS DEL DR. ESTEVE S.A., priority 2012, dated 2016):
Structures can show the parent of a compound that is named as a salt.

molecular target: T1, sigma-1 receptor (Cavia porcellus, UniProt Q60492); assay: Sigma-1 receptor binding assay, [3H]-(+)-pentazocine, guinea pig brain membranes; conditions: radioligand [3H]-(+)-pentazocine 5.0 nM, 150 min at 37° C., nonspecific binding with 1 μM haloperidol
T1 construct: Guinea pig brains were homogenized in 10 vols; (w/v) of Tris-HCl 50 mM 0.32 M sucrose, pH 7.4; from tissue; host or cells: guinea pig brain membranes
T1 sequence (Q60492 whole entry): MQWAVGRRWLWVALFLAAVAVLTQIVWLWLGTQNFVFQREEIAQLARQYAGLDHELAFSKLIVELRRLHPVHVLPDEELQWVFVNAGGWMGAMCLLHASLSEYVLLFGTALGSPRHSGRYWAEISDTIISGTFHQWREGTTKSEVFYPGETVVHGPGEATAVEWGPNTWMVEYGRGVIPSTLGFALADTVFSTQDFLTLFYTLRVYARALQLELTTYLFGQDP
Description: Brain membrane preparation and binding assays for the […] were performed as described (DeHaven-Hudkins, D. L., L. C. Fleissner, and F. Y. Ford-Rice, 1992, Characterization of the binding of [^3H](+)pentazocine to α recognition sites in guinea pig brain, Eur. J. Pharmacol. 227, 371-378) with some modifications. Guinea pig brains were homogenized in 10 vols. (w/v) of Tris-HCl 50 mM 0.32 M sucrose, pH 7.4, with a Kinematica Polytron PT 3000 at 15000 r.p.m. for 30 s. The homogenate was centrifuged at 1000 g for 10 min at 4° C. and the supernatants collected and centrifuged again at 48000 g for 15 min at 4° C. The pellet was resuspended in 10 volumes of Tris-HCl buffer (50 mM, pH 7.4), incubated at 37° C. for 30 min, and centrifuged at 48000 g for 20 min at 4° C. Following this, the pellet was re-suspended in fresh Tris-HCl buffer (50 mM, pH 7.4) and stored on ice until use.
The radioligand used was [^3H]-(+)-pentazocine at 5.0 nM and the final volume was 200 μl. The incubation was initiated with the addition of 100 μl of membrane at a final tissue concentration of approximately 5 mg tissue net weight/mL and the incubation time was 150 m. at 37° C. After incubation, the membranes were collected onto pretreated glass fiber filterplate (MultiScreen-FC, Millipore), with polyethylenimine 0.1%. The filters were washed two times with 200 μl of washing buffer (50 mM Tris Cl, pH=7.4) and then 25 μl of Ecoscint H liquid scintillation cocktail were added. Microplates were allowed to set for several hours and then quantified by liquid scintillation spectrophotometry (1450 Microbeta, Wallac). Nonspecific binding was determined with 1 μM haloperidol.

`c1ccc(-c2ncnc3c2cnn3CCN2CCCCC2)cc1` [Example 1, 4-phenyl-1-(2-(piperidin-1-yl)ethyl)-1H-pyrazolo[3,4-d]pyrimidine] and `Cc1ccccc1-c1ncnc2c1cnn2CCN1CCCCC1` [Example 2, 1-(2-(piperidin-1-yl)ethyl)-4-o-tolyl-1H-pyrazolo[3,4-d]pyrimidine] are within 1.5-fold of each other in Ki: 0.0996 µM for the first, 0.0738 µM for the second.

First: Cc1cccc(-c2ncnc3c2cnn3CCN2CCCCC2)c1 [Example 3, 1-(2-(piperidin-1-yl)ethyl)-4-m-tolyl-1H-pyrazolo[3,4-d]pyrimidine hydrochloride]
Second: Cc1cncc(-c2ncnc3c2cnn3CCN2CCCCC2)c1 [Example 18, 4-(5-methylpyridin-3-yl)-1-(2-(piperidin-1-yl)ethyl)-1H-pyrazolo[3,4-d]pyrimidine]
The Ki of the first is 5.4-fold lower: 0.0825 µM for the first, 0.447 µM for the second.

`Cc1noc(C)c1-c1ncnc2c1cnn2CCN1CCCCC1` [Example 6, 3,5-dimethyl-4-(1-(2-(piperidin-1-yl)ethyl)-1H-pyrazolo[3,4-d]pyrimidin-4-yl)isoxazole hydrochloride] and `Cc1ccc(C)c(-c2ncnc3c2cnn3CCN2CCCCC2)c1` [Example 26, 4-(2,5-dimethylphenyl)-1-(2-(piperidin-1-yl)ethyl)-1H-pyrazolo[3,4-d]pyrimidine] are within 1.5-fold of each other in Ki: 0.0724 µM for the first, 0.0554 µM for the second.

Going from `COc1ncccc1-c1ncnc2c1cnn2CCN1CCCCC1` [Example 10, 4-(2-methoxypyridin-3-yl)-1-(2-(piperidin-1-yl)ethyl)-1H-pyrazolo[3,4-d]pyrimidine] to `CCOc1ccccc1-c1ncnc2c1cnn2CCN1CCCCC1` [Example 13, 4-(2-ethoxyphenyl)-1-(2-(piperidin-1-yl)ethyl)-1H-pyrazolo[3,4-d]pyrimidine hydrochloride], the Ki rises from 0.112 µM to 0.3 µM (2.7-fold). The first binds more tightly here.

First: COc1ncccc1-c1ncnc2c1cnn2CCN1CCCCC1 [Example 11, 4-(2-methoxypyridin-3-yl)-1-(2-(piperidin-1-yl)ethyl)-1H-pyrazolo[3,4-d]pyrimidine (L)-tartrate]
Second: Clc1ccccc1-c1ncnc2c1cnn2CCN1CCCCC1 [Example 35, 4-(2-chlorophenyl)-1-(2-(piperidin-1-yl)ethyl)-1H-pyrazolo[3,4-d]pyrimidine]
The Ki of the first is 2-fold higher: 0.151 µM for the first, 0.0757 µM for the second. The second binds more tightly here.

Compared with `Fc1ccc(-c2ncnc3c2cnn3CCN2CCCCC2)cc1` [Example 14, 4-(4-fluorophenyl)-1-(2-(piperidin-1-yl)ethyl)-1H-pyrazolo[3,4-d]pyrimidine], `Clc1ccc(-c2ncnc3c2cnn3CCN2CCCCC2)cc1` [Example 21, 4-(4-chlorophenyl)-1-(2-(piperidin-1-yl)ethyl)-1H-pyrazolo[3,4-d]pyrimidine] is 2.2-fold lower in Ki: 0.0954 µM for the first, 0.0426 µM for the second. The second binds more tightly here.

First: Cn1nc(C(F)(F)F)cc1-c1ncnc2c1cnn2CCN1CCCCC1 [Example 16, 4-(1-methyl-3-(trifluoromethyl)-1H-pyrazol-5-yl)-1-(2-(piperidin-1-yl)ethyl)-1H-pyrazolo[3,4-d]pyrimidine]
Second: Fc1ccc(-c2ncnc3c2cnn3CCN2CCCCC2)c(C(F)(F)F)c1 [Example 34, 4-(4-fluoro-2-(trifluoromethyl)phenyl)-1-(2-(piperidin-1-yl)ethyl)-1H-pyrazolo[3,4-d]pyrimidine]
The Ki of the first is 2.4-fold higher: 0.137 µM for the first, 0.057 µM for the second. The second binds more tightly here.

`Clc1ccc(-c2ncnc3c2cnn3CCN2CCCCC2)s1` [Example 20, 4-(5-chlorothiophen-2-yl)-1-(2-(piperidin-1-yl)ethyl)-1H-pyrazolo[3,4-d]pyrimidine] and `Cc1ccc(Cl)c(-c2ncnc3c2cnn3CCN2CCCCC2)c1` [Example 25, 4-(2-chloro-5-methylphenyl)-1-(2-(piperidin-1-yl)ethyl)-1H-pyrazolo[3,4-d]pyrimidine] are within 1.5-fold of each other in Ki: 0.035 µM for the first, 0.0312 µM for the second.

Compared with `Cn1cccc1-c1ncnc2c1cnn2CCN1CCCCC1` [Example 27, 4-(1-methyl-1H-pyrrol-2-yl)-1-(2-(piperidin-1-yl)ethyl)-1H-pyrazolo[3,4-d]pyrimidine], `c1nc(-c2cnsc2)c2cnn(CCN3CCCCC3)c2n1` [Example 36, 4-(1-(2-(piperidin-1-yl)ethyl)-1H-pyrazolo[3,4-d]pyrimidin-4-yl)isothiazole] is 15-fold higher in Ki: 0.0315 µM for the first, 0.475 µM for the second.

`COc1cc(F)ccc1-c1ncnc2c1cnn2CCN1CCCCC1` [Example 28, 4-(4-fluoro-2-methoxyphenyl)-1-(2-(piperidin-1-yl)ethyl)-1H-pyrazolo[3,4-d]pyrimidine] and `Cc1cc(F)ccc1-c1ncnc2c1cnn2CCN1CCCCC1` [Example 29, 4-(4-fluoro-2-methylphenyl)-1-(2-(piperidin-1-yl)ethyl)-1H-pyrazolo[3,4-d]pyrimidine] are within 1.5-fold of each other in Ki: 0.0392 µM for the first, 0.0484 µM for the second.

First: FC(F)(F)c1ccccc1-c1ncnc2c1cnn2CCN1CCCCC1 [Example 38, 1-(2-(piperidin-1-yl)ethyl)-4-(2-(trifluoromethyl)phenyl)-1H-pyrazolo[3,4-d]pyrimidine]
Second: Fc1ccc(-c2ncnc3c2cnn3CCN2CCCCC2)c(F)c1 [Example 39, 4-(2,4-difluorophenyl)-1-(2-(piperidin-1-yl)ethyl)-1H-pyrazolo[3,4-d]pyrimidine]
The Ki of the first is 1.5-fold higher: 0.125 µM for the first, 0.0816 µM for the second. The second binds more tightly here.

Going from `Fc1ccc(-c2ncnc3c2cnn3CCN2CCCCC2)c(Cl)c1` [Example 42, 4-(2-chloro-4-fluorophenyl)-1-(2-(piperidin-1-yl)ethyl)-1H-pyrazolo[3,4-d]pyrimidine] to `Fc1cc(Cl)ccc1-c1ncnc2c1cnn2CCN1CCCCC1` [Example 46, 4-(4-chloro-2-fluorophenyl)-1-(2-(piperidin-1-yl)ethyl)-1H-pyrazolo[3,4-d]pyrimidine], the Ki rises from 0.027 µM to 0.112 µM (4.1-fold). The first binds more tightly here.

Compared with `Fc1ccc(-c2ncnc3c2cnn3CCN2CCC(F)(F)CC2)c(Cl)c1` [Example 44, 4-(2-chloro-4-fluorophenyl)-1-(2-(4,4-difluoropiperidin-1-yl)ethyl)-1H-pyrazolo[3,4-d]pyrimidine], `CN(CCn1ncc2c(-c3ccc(F)cc3Cl)ncnc21)Cc1ccc(F)cc1` [Example 49, 2-(4-(2-chloro-4-fluorophenyl)-1H-pyrazolo[3,4-d]pyrimidin-1-yl)-N-(4-fluorobenzyl)-N-methylethanamine] is 5.2-fold lower in Ki: 0.318 µM for the first, 0.0617 µM for the second.

Compared with `CN(CCn1ncc2c(-c3ccccc3Cl)ncnc21)Cc1ccc(F)cc1` [Example 47, 2-(4-(2-chlorophenyl)-1H-pyrazolo[3,4-d]pyrimidin-1-yl)-N-(4-fluorobenzyl)-N-methylethanamine], `CN(CCn1ncc2c(-c3ccnn3C)ncnc21)Cc1ccc(F)cc1` [Example 48, N-(4-fluorobenzyl)-N-methyl-2-(4-(1-methyl-1H-pyrazol-5-yl)-1H-pyrazolo[3,4-d]pyrimidin-1-yl)ethanamine] is 2.2-fold lower in Ki: 0.0766 µM for the first, 0.0341 µM for the second.
